Experimental data as given in publication PMC9821907, “Synthesis and Antiprotozoal Activity of Azabicyclo-Nonane Pyrimidine Hybrids” (Molecules, 2022).
Read-outs that look alike come from different tables or passages of the source.

Columns and labels:
in vitro = conditions: rat
Experimental: (§1) Compounds were tested for their activities against Plasmodium falciparum NF54 (sensitive to chloroquine) and Trypanosoma brucei rhodesiense STIB900, via serial dilution assays. Furthermore, selected compounds were tested against the K1 strain of Plasmodium falciparum (resistant against chloroquine, sulfadoxine and pyrimethamine). Their cytotoxicity was determined with rat skeletal myoblasts (L-6 cells).
Assays were performed in 96-well microtiter plates, each well containing 0.1 mL of RPMI 1640 medium supplemented with 1% L-glutamine (200 mM) and 10% fetal bovine serum, and 4000 L-6 cells (a primary cell line derived from rat skeletal myoblasts, ATCC CRL-1458™). Serial drug dilutions of eleven 3-fold dilution steps covering a range from 100 to 0.002 μg/mL were prepared. After 70 h of incubation the plates were inspected under an inverted microscope to assure growth of the controls and sterile conditions. Then, 0.01 mL resazurin solution (resazurin, 12.5 mg in 100 mL double-distilled water) was added to each well and the plates incubated for another 2 h. The plates were read with a Spectramax Gemini XS microplate fluorometer (Molecular Devices Cooperation, Sunnyvale, CA, USA) using an excitation wave length of 536 nm and an emission wave length of 588 nm. The IC50 values were calculated by linear regression from the sigmoidal dose inhibition curves using SoftmaxPro software (Molecular Devices Cooperation, Sunnyvale, CA, USA). Podophyllotoxin (Sigma P4405) was used as control.

P. falciparum K1 = test: In vitro microplate 3H-hypoxanthine incorporation assay against P. falciparum K1; type: cell-based, Plasmodium falciparum
Experimental: as §1
(§2) In vitro activity against erythrocytic stages of P. falciparum was determined using a ^3H-hypoxanthine incorporation assay using the drug sensitive NF54 strain [27] or the chloroquine- and pyrimethamine-resistant K1 strain [28]. Compounds were dissolved in DMSO at 10 mg/mL and further diluted in medium before being added to parasite cultures incubated in RPMI 1640 medium without hypoxanthine, supplemented with HEPES (5.94 g/L), NaHCO3 (2.1 g/L), neomycin (100 U/mL), Albumax® (5 g/L) and washed human red cells A+ at 2.5% haematocrit (0.3% parasitaemia). Serial drug dilutions of eleven 3-fold dilution steps covering a range from 100 to 0.002 μg/mL were prepared. The 96-well plates were incubated in a humidified atmosphere at 37 °C; 4% CO2, 3% O2, 93% N2. After 48 h, 0.05 mL of ^3H-hypoxanthine (= 0.5 μCi) was added to each well of the plate. The plates were incubated for a further 24 h under the same conditions. The plates were then harvested with a Betaplate™ cell harvester (Wallac, Zurich, Switzerland), and the red blood cells transferred onto a glass fibre filter then washed with distilled water. The dried filters were inserted into a plastic foil with 10 mL of scintillation fluid, and counted in a Betaplate™ liquid scintillation counter (Wallac, Zurich, Switzerland). IC50 values were calculated from sigmoidal inhibition curves by linear regression using Microsoft Excel. Chloroquine (Sigma C6628) was used as control.

[1] = system: T. brucei rhodesiense STIB900; test: In vitro microplate resazurin assay against T. brucei rhodesiense; type: cell-based; conditions: Trypanosoma brucei, read-out: T. brucei rhodesiense STIB900 IC50
Experimental: as §1
Minimum essential medium (50 µL) supplemented with 25 mM HEPES, 1g/L additional glucose, 1% MEM non-essential amino acids (100×), 0.2 mM 2-mercaptoethanol, 1mM Na-pyruvate and 15% heat-inactivated horse serum was added to each well of a 96-well microtiter plate. Serial drug dilutions of eleven 3-fold dilution steps covering a range from 100 to 0.002 μg/mL were prepared. Then 4 × 10^3 bloodstream forms of T. b. rhodesiense STIB 900 in 50 µL was added to each well and the plate incubated at 37 °C under a 5 % CO2 atmosphere for 70 h. Next, 10 µL resazurin solution (resazurin, 12.5 mg in 100 mL double-distilled water) was added to each well and incubation continued for a further 2–4 h. Then the plates were read with a Spectramax Gemini XS microplate fluorometer (Molecular Devices Cooperation, Sunnyvale, CA, USA) using an excitation wave length of 536 nm and an emission wave length of 588 nm. Data were analyzed with the graphic programme Softmax Pro (Molecular Devices Cooperation, Sunnyvale, CA, USA), which calculated IC50 values by linear regression and 4-parameter logistic regression from the sigmoidal dose inhibition curves. Melarsoprol (Arsobal Sanofi-Aventis, received from WHO) was used as control.

P. falciparum NF54 = test: In vitro microplate 3H-hypoxanthine incorporation assay against P. falciparum NF54; type: cell-based; conditions: Plasmodium falciparum
Experimental: as §1, §2

[2] = Plasmodium falciparum, K1, K1 strain, resistant to chloroquine, sulfadoxine and pyrimethamine, average of four determinations, read-out: P. falciparum K1 IC50
[3] = bloodstream forms, average of four determinations
[4] = NF54 strain, sensitive to chloroquine and pyrimethamine, average of four determinations, read-out: P. falciparum NF54 IC50
[5] = K1 strain, resistant to chloroquine, sulfadoxine and pyrimethamine, average of four determinations, read-out: P. falciparum K1 IC50

| SMILES | IC50 at 72 h (in vitro) [nM] | IC50 (P. falciparum K1; [2]) [nM] | IC50 [1, 3] [nM] | IC50 (P. falciparum NF54; [4]) [nM] | IC50 (P. falciparum K1; [5]) [nM] | IC50 (P. falciparum K1; Plasmodium falciparum, K1, read-out: P. falciparum K1 IC50) [nM] | IC50 (P. falciparum NF54; NF54, read-out: P. falciparum NF54 IC50) [nM] | IC50 [1] [nM] |
| --- | --- | --- | --- | --- | --- | --- | --- | --- |
| Cc1cc(N2CCC3(N4CCCCC4)CC(c4ccccc4)C2C(c2ccccc2)C3)nc(N)n1 (racemic) [Compound 5, rac-4-[(7R,8R)-7,8-diphenyl-5-(piperidin-1-yl)-2-azabicyclo[3.2.2]nonan-2-yl]-6-methylpyrimidin-2-amine] | 10600 ± 1940 | 140 ± 33 | 3310 ± 235 | 212 ± 12 |  |  |  |  |
| Cc1cc(N2CCC3(N4CCCC4)CC(c4ccccc4)C2C(c2ccccc2)C3)nc(N)n1 (racemic) [Compound 6, rac-4-[(7R,8R)-7,8-diphenyl-5-(pyrrolidin-1-yl)-2-azabicyclo[3.2.2]nonan-2-yl]-6-methylpyrimidin-2-amine] | 12500 ± 3310 |  | 161 | 88 ± 57 |  |  |  |  |
| Cc1cc(N2CC3C(c4ccccc4)CC(N4CCCCC4)(CC3c3ccccc3)C2)nc(N)n1 (racemic) [Compound 7] | 8000 ± 1890 | 51 to 94 | 573 ± 132 | 24 ± 4 | 51 ± 24 |  |  |  |
| Cc1cc(N2CC3C(c4ccccc4)CC(N4CCCC4)(CC3c3ccccc3)C2)nc(N)n1 (racemic) [Compound 8] | 4480 ± 1440 |  | 322 ± 151 | 62 ± 1 |  |  |  |  |
| Nc1cc(N2CCC3(N4CCCCC4)CC(c4ccccc4)C2C(c2ccccc2)C3)nc(N)n1 (racemic) [Compound 9, rac-6-[(7R,8R)-7,8-diphenyl-5-(piperidin-1-yl)-2-azabicyclo[3.2.2]nonan-2-yl]pyrimidine-2,4-diamine] | 9730 ± 661 | 51 to 94 | 1560 ± 643 | 51 ± 7 | 94 ± 4 |  |  |  |
| Nc1cc(N2CCC3(N4CCCC4)CC(c4ccccc4)C2C(c2ccccc2)C3)nc(N)n1 (racemic) [Compound 10, rac-6-[(7R,8R)-7,8-diphenyl-5-(pyrrolidin-1-yl)-2-azabicyclo[3.2.2]nonan-2-yl]pyrimidine-2,4-diamine] | 11260 ± 33 | 216 ± 37 | 853 ± 16 | 79 ± 1 |  |  |  |  |
| Nc1cc(N2CC3C(c4ccccc4)CC(N4CCCCC4)(CC3c3ccccc3)C2)nc(N)n1 (racemic) [Compound 11] | 4330 ± 235 | 87 ± 2 | 201 ± 39 | 23 ± 1 |  |  |  |  |
| Cc1cc(N2CCC3(N4CCCCC4)C[C@H](c4ccccc4)C2[C@@H](c2ccccc2)C3)nc(N2CCCC2)n1 (racemic) [Compound 17, rac-(7R,8R)-2-[6-methyl-2-(pyrrolidin-1-yl)pyrimidin-4-yl]-7,8-diphenyl-5-(piperidin-1-yl)-2-azabicyclo[3.2.2]nonane] | 23200 ± 9930 |  | 575 ± 33 | 617 ± 8 |  |  |  |  |
| Cc1cc(N2CCC3(N4CCCCC4)C[C@H](c4ccccc4)C2[C@@H](c2ccccc2)C3)nc(N2CCCCC2)n1 (racemic) [Compound 21, rac-(7R,8R)-2-[6-methyl-2-(piperidin-1-yl)pyrimidin-4-yl]-7,8-diphenyl-5-(piperidin-1-yl)-2-azabicyclo[3.2.2]nonane] | 104000 ± 27000 |  | 8720 ± 4200 | 4700 ± 1180 |  |  |  |  |
| Cc1cc(N2CCC3(N4CCCC4)C[C@H](c4ccccc4)C2[C@@H](c2ccccc2)C3)nc(N2CCCCC2)n1 (racemic) [Compound 22, rac-(7R,8R)-2-[6-methyl-2-(piperidin-1-yl)pyrimidin-4-yl]-7,8-diphenyl-5-(pyrrolidin-1-yl)-2-azabicyclo[3.2.2]nonane] | 6730 ± 3080 |  | 107 ± 49 | 406 ± 15 |  |  |  |  |
| Cc1cc(N2CC3C(c4ccccc4)CC(N4CCCC4)(CC3c3ccccc3)C2)nc(N2CCCCC2)n1 (racemic) [Compound 24, rac-(7R,8R)-3-[6-methyl-2-(piperidin-1-yl)pyrimidin-4-yl]-6,9-diphenyl-1-(pyrrolidin-1-yl)-3-azabicyclo[3.2.2]nonane] | 61800 ± 27900 |  | 1450 ± 116 | 3790 ± 163 |  |  |  |  |
| CCN(CC)CCCC(C)Nc1ccnc2cc(Cl)ccc12 (stereo not drawn) [CQ, chloroquine, reference compound] | 90900 |  |  |  |  | 163 | 3.9 |  |
| Nc1nc(N)nc(Nc2ccc([As]3SCC(CO)S3)cc2)n1 (stereo not drawn) [MEL, melarsoprol, reference compound] | 7780 |  |  |  |  |  |  | 10 |
